# Biological target: MMP-3 (Homo sapiens, UniProt P08254)
# Assay: MMP-3 fluorescence-based inhibition assay
# MMP-3, sequence (P08254 100-272 limits assumed): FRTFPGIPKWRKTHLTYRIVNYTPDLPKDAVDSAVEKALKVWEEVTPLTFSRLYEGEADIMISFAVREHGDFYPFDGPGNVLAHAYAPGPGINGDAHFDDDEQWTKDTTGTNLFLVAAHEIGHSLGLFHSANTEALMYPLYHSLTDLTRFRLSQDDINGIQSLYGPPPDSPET
compound,measurement,setting,value
Cc1cc(=O)c(O)c(C(=O)Nc2ccc(-c3ccccc3)cc2)o1 [AM3],IC50,,90 µM
O=C(NCc1ccc(-c2ccccc2)cc1)c1cc(=O)c(O)co1 [CA1],inhibition at 50 µM,read-out: inhibition of MMP-3,25%

# Source: patent US8008510B2, “Metalloprotein inhibitors” (The Regents of the University of California, priority 2004, dated 2011)
